Here are results for 18 compounds from patent publication US4593090A, “Novel nitrosourea compounds, method for preparing same, and pharmaceutical composition containing same” (Gogo Kimura, priority 1981, dated 1986).

Some results are limits rather than exact numbers.

The nature of data set [1]: Acute toxicity (LD50, Behrens-Karber method). It is filed as in vivo, ICR mice. The following applies: mouse, in vivo, ip, mortality during 30 days. How it is done:
Test compounds, dissolved or suspended in 0.5% aqueous CMC, were each intraperitoneally administered to ICR mice in a dose of 0.1 ml per 10 g body weight. LD50 (mg/kg) value of each test compound was calculated from the mortality of mice during 30 days by the Behrens-Karber method.

For another data set, the system named is Leukemia L1210. The data set can be described thus: Activity against Leukemia L1210, intraperitoneal, increase in life span of mice. It is filed as in vivo, female mice (BDF1 family). The following applies: for ED (maximum ILS) / ED30: Mus musculus, L1210, ip, ip once a day for 5 successive days; for ED (maximum ILS): daily dosage giving maximum increase of life span, read-out: O.D. (optimum dosage); for ED30: daily dosage increasing average survival days by 30%, read-out: ILS30; for Survivors after 60 days / Max. ILS % / Therapeutic ratio TR: ip; for Survivors after 60 days: 6-membered group; for Max. ILS %: 60-day observation, versus control; for Therapeutic ratio TR: O.D./ILS30. Put shortly:
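L1210 cells (1×10^5) into abdominal cavity of female BDF1 mice, 20–23 g, n=6/group. Dosing 24 h post-implant, ip or po, qd ×5. 60-day observation; ILS% = mean survival vs untreated control; T.R. = O.D./ILS 30.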

On to `CC(C)CCN(C(=O)N(CCCl)N=O)[C@H]1[C@@H](O)[C@@H](CO)O[C@H](OCC(C)C)[C@@H]1O` [Compound 127, 3-isoamyl-3-(isobutyl α-D-galactopyranose-3-yl)-1-(2-chloroethyl)-1-nitrosourea], for which, in data set [1], the LD50 at 720 h is 600 mg/kg. In the data set on Leukemia L1210, the ED (maximum ILS) was 200 mg/kg, the ED30 is 6.56 mg/kg, the “Survivors after 60 days” value is on record as 3/6 and the “Max. ILS %” value is listed as more than 340%. In the data set on Leukemia L1210, the “Therapeutic ratio TR” value is 30.5.
`O=NN(CCCl)C(=O)N(CC1CCCCC1)[C@H]1[C@@H](O)[C@@H](CO)O[C@H](OC2CCCCC2)[C@@H]1O` [Compound 128, 3-cyclohexylmethyl-3-(cyclohexyl α-D-galactopyranose-3-yl)-1-(2-chloroethyl)-1-nitrosourea] gave an LD50 at 720 h in data set [1] of 650 mg/kg. Besides, in the data set on Leukemia L1210, the ED (maximum ILS) came to 200 mg/kg, the ED30 turned out to be 5.99 mg/kg, the “Survivors after 60 days” value is 3/6 and the “Max. ILS %” value was more than 350%. In addition, the “Therapeutic ratio TR” value in the data set with Leukemia L1210 was found to be 33.4.
In data set [1], `CC(C)CO[C@H]1O[C@H](CO)[C@H](N(CC(C)C)C(=O)N(CCCl)N=O)[C@H](O)[C@H]1O` [Compound 129, 3-isobutyl-3-(isobutyl α-D-garactopyranose-4-yl)-1-(2-chloroethyl)-1-nitrosourea] returned a median lethal dose (LD50) at 720 h of 600 mg/kg. In the data set on Leukemia L1210, the ED (maximum ILS) came to 200 mg/kg, the ED30 was 5.21 mg/kg, the “Survivors after 60 days” value is recorded as 3/6 and the “Max. ILS %” value was more than 350%. In the data set on Leukemia L1210, the “Therapeutic ratio TR” value is listed as 38.4.
Turning to `C=C(C)CN(C(=O)N(CCCl)N=O)[C@@H]1[C@H](O)[C@@H](O)[C@@H](OCC(COC)OC)O[C@@H]1CO` (stereo partly drawn) [Compound 130, 3-(2-methyl-2-propenyl)-3-(2,3-dimethoxy-n-propyl α-D-galactopyranose-4-yl)-1-(2-chloroethyl)-1-nitrosourea], the LD50 at 720 h in data set [1] came to 525 mg/kg. In the data set with Leukemia L1210, the ED (maximum ILS) worked out at 160 mg/kg, the ED30 was 5.06 mg/kg, the “Survivors after 60 days” value was 3/6 and the “Max. ILS %” value is recorded as more than 340%. For the same compound, the “Therapeutic ratio TR” value in the data set on Leukemia L1210 was found to be 31.6.
As to `CCOCCO[C@H]1O[C@H](CO)[C@H](N(CC(C)C)C(=O)N(CCCl)N=O)[C@H](O)[C@H]1O` [Compound 131, 3-isobutyl-3-(2-ethoxyethyl α-D-galacropyranose-4-yl)-1-(2-chloroethyl)-1-nitrosourea], in data set [1], the LD50 at 720 h was determined as 565 mg/kg. In addition, in the data set on Leukemia L1210, the ED (maximum ILS) came out at 160 mg/kg, the ED30 was 3.98 mg/kg, the “Survivors after 60 days” value is listed as 4/6 and the “Max. ILS %” value is given as more than 430%. In the data set with Leukemia L1210, the “Therapeutic ratio TR” value is listed as 40.2.
For `CCCN(C[C@@H]1O[C@@H](OCC(C)C)[C@@H](O)[C@H](O)[C@@H]1O)C(=O)N(CCCl)N=O` [Compound 133, 3-n-propyl-3-(isobutyl α-L-galactopyranose-6-yl)-1-(2-chloroethyl)-1-nitrosourea], the 50% lethal dose (LD50) at 720 h in data set [1] amounted to 495 mg/kg. For the same compound, in the data set with Leukemia L1210, the ED (maximum ILS) is 150 mg/kg, the ED30 was determined as 4.11 mg/kg, the “Survivors after 60 days” value is reported as 3/6 and the “Max. ILS %” value is on record as more than 360%. For the same compound, the “Therapeutic ratio TR” value with Leukemia L1210 is recorded as 36.5.
Turning to `CCCCN(C[C@@H]1O[C@@H](OCC2CC2)[C@@H](O)[C@H](O)[C@@H]1O)C(=O)N(CCCl)N=O` [Compound 134, 3-n-butyl-3-(cyclopropylmethyl α-L-galactopyranose-6-yl)-1-(2-chloroethyl)-1-nitrosourea], in data set [1], the 50% lethal dose (LD50) at 720 h was found to be 490 mg/kg. Moreover, in the data set on Leukemia L1210, the ED (maximum ILS) is 150 mg/kg, the ED30 was 3.73 mg/kg, the “Survivors after 60 days” value is 3/6 and the “Max. ILS %” value is on record as more than 365%. Moreover, the “Therapeutic ratio TR” value in the data set with Leukemia L1210 came out at 40.2.
On to `CC(C)CO[C@H]1O[C@H](CO)[C@@H](N(C(=O)N(CCCl)N=O)C2CCCCC2)[C@H](O)[C@@H]1O` [Compound 137, 3-cyclohexyl-3-(isobutyl α-D-mannopyranose-4-yl)-1-(2-chloroethyl)-1-nitrosourea], for which, in data set [1], the LD50 at 720 h worked out at 550 mg/kg. In the data set with Leukemia L1210, the ED (maximum ILS) is 170 mg/kg, the ED30 turned out to be 3.74 mg/kg, the “Survivors after 60 days” value is reported as 4/6 and the “Max. ILS %” value is given as more than 425%. Further, the “Therapeutic ratio TR” value with Leukemia L1210 was 45.5.
With `CCC(C)N(C(=O)N(CCCl)N=O)[C@H]1[C@H](O)[C@H](O)[C@@H](OCc2ccccc2)O[C@@H]1CO` (stereo partly drawn) [Compound 138, 3-sec-butyl-3-(benzylα-D-mannopyranose-4-yl)-1-(2-chloroethyl)-1-nitrosourea], the LD50 at 720 h in data set [1] worked out at 370 mg/kg. Besides, in the data set on Leukemia L1210, the ED (maximum ILS) came to 120 mg/kg, the ED30 turned out to be 4.26 mg/kg, the “Survivors after 60 days” value is on record as 3/6 and the “Max. ILS %” value is given as more than 350%. Further, in the data set with Leukemia L1210, the “Therapeutic ratio TR” value came to 28.2.
Turning to `CC(C)CN(C[C@H]1O[C@H](OCc2ccccc2)[C@@H](O)[C@H](O)[C@@H]1O)C(=O)N(CCCl)N=O` [Compound 139, 3-isobutyl-3-(benzyl α-D-altropyranose-6-yl)-1-(2-chloroethyl)-1-nitrosourea], the LD50 at 720 h in data set [1] amounted to 420 mg/kg. In the data set on Leukemia L1210, the ED (maximum ILS) was determined as 130 mg/kg, the ED30 was determined as 4.58 mg/kg, the “Survivors after 60 days” value is reported as 3/6 and the “Max. ILS %” value was more than 340%. For the same compound, in the data set with Leukemia L1210, the “Therapeutic ratio TR” value stood at 28.4.
In data set [1], `COCC(C)N(C[C@H]1O[C@H](OCCc2ccccc2)[C@@H](O)[C@H](O)[C@@H]1O)C(=O)N(CCCl)N=O` (stereo partly drawn) [Compound 141, 3-(1-methyl-2-methoxyethyl)-3-(phenyl-β-ethyl α-D-altropyranose-6-yl)-1-(2-chloroethyl)-1-nitrosourea] displayed an LD50 at 720 h of 480 mg/kg. Moreover, in the data set on Leukemia L1210, the ED (maximum ILS) amounted to 160 mg/kg, the ED30 was 4.4 mg/kg, the “Survivors after 60 days” value is recorded as 3/6 and the “Max. ILS %” value is more than 360%. Moreover, the “Therapeutic ratio TR” value with Leukemia L1210 worked out at 36.4.
`COCCN(C(=O)N(CCCl)N=O)[C@@H]1[C@@H](OCCc2ccccc2)O[C@H](CO)[C@@H](O)[C@H]1O` [Compound 142, 3-(2-methoxyethyl)-3-(phenyl-β-ethyl α-D-altropyranose-2-yl)-1-(2-chloroethyl)-1-nitrosourea]: in data set [1], the LD50 at 720 h turned out to be 500 mg/kg. For the same compound, in the data set on Leukemia L1210, the ED (maximum ILS) came to 160 mg/kg, the ED30 came out at 4.16 mg/kg, the “Survivors after 60 days” value is given as 3/6 and the “Max. ILS %” value is more than 350%. Besides, in the data set with Leukemia L1210, the “Therapeutic ratio TR” value came to 38.5.
As for `O=NN(CCCl)C(=O)N(CC1CCCO1)[C@H]1[C@H](O)[C@@H](OCCc2ccccc2)O[C@H](CO)[C@H]1O` (stereo partly drawn) [Compound 143, 3-tetrahydrofurfuryl-3-(phenyl-β-ethyl α-D-altropyranose-3-yl)-1-(2-chloroethyl)-1-nitrosourea], the LD50 at 720 h in data set [1] stood at 460 mg/kg. In the data set with Leukemia L1210, the ED (maximum ILS) is 150 mg/kg, the ED30 came out at 3.52 mg/kg, the “Survivors after 60 days” value is on record as 4/6 and the “Max. ILS %” value is more than 425%. The “Therapeutic ratio TR” value in the data set with Leukemia L1210 is on record as 42.6.
In data set [1], `COCC(C)O[C@H]1O[C@H](CN(CC(C)C)C(=O)N(CCCl)N=O)[C@@H](O)[C@@H](O)[C@@H]1O` (stereo partly drawn) [Compound 144, 3-isobutyl-3-(1-methyl-2-methoxyethyl α-D-altropyranose-6-yl)-1-(2-chloroethyl)-1-nitrosourea] displayed an LD50 at 720 h of 580 mg/kg. In addition, in the data set on Leukemia L1210, the ED (maximum ILS) is 160 mg/kg, the ED30 came to 2.8 mg/kg, the “Survivors after 60 days” value is 6/6 and the “Max. ILS %” value was more than 700%. The “Therapeutic ratio TR” value in the data set on Leukemia L1210 turned out to be 57.1.
Compound `CCCN(C(=O)N(CCCl)N=O)[C@@H]1[C@@H](O)[C@@H](OC2CCCCC2)OC[C@H]1O` [Compound 147, 3-n-propyl-3-(cyclohexyl α-D-xylopyranose-3-yl)-1-(2-chloroethyl)-1-nitrosourea] yielded an LD50 at 720 h in data set [1] of 430 mg/kg. For the same compound, in the data set with Leukemia L1210, the ED (maximum ILS) turned out to be 150 mg/kg, the ED30 was 3.91 mg/kg, the “Survivors after 60 days” value is given as 3/6 and the “Max. ILS %” value is reported as more than 350%. The “Therapeutic ratio TR” value in the data set on Leukemia L1210 was 38.4.
Compound `CC(C)N(C(=O)N(CCCl)N=O)[C@@H]1CO[C@H](OC2CCCCC2)[C@H](O)[C@H]1O` [Compound 148, 3-isopropyl-3-(cyclohexyl α-D-xylopyranose-4-yl)-1-(2-chloroethyl)-1-nitrosourea] came in with an LD50 at 720 h in data set [1] of 480 mg/kg. Moreover, in the data set with Leukemia L1210, the ED (maximum ILS) turned out to be 160 mg/kg, the ED30 is 3.81 mg/kg, the “Survivors after 60 days” value is 4/6 and the “Max. ILS %” value was more than 425%. Also, in the data set with Leukemia L1210, the “Therapeutic ratio TR” value is on record as 42.0.
Consider `CC(C)CN(C(=O)N(CCCl)N=O)[C@@H]1[C@@H](O)[C@@H](OC2CCCCC2)OC[C@H]1O` [Compound 150, 3-isobutyl-3-(cyclohexyl α-D-xylopyranose-3-yl)-1-(2-chloroethyl)-1-nitrosourea], for which, in data set [1], the LD50 at 720 h stood at 505 mg/kg. Further, in the data set with Leukemia L1210, the ED (maximum ILS) came to 150 mg/kg, the ED30 amounted to 3.12 mg/kg, the “Survivors after 60 days” value is recorded as 4/6 and the “Max. ILS %” value was more than 420%. Further, the “Therapeutic ratio TR” value with Leukemia L1210 was 48.1.
Consider `CC(C)CN(C(=O)N(CCCl)N=O)[C@@H]1CO[C@H](OC2CCCCC2)[C@H](O)[C@H]1O` [Compound 151, 3-isobutyl-3-(cyclohexyl α-D-xylopyranose-4-yl)-1-(2-chloroethyl)-1-nitrosourea], for which, in data set [1], the median lethal dose (LD50) at 720 h is 490 mg/kg. Further, in the data set on Leukemia L1210, the ED (maximum ILS) was 150 mg/kg, the ED30 worked out at 3.21 mg/kg, the “Survivors after 60 days” value is listed as 4/6 and the “Max. ILS %” value was more than 425%. Besides, the “Therapeutic ratio TR” value in the data set on Leukemia L1210 is listed as 46.7.

Broadly, the LD50 is the dose at which mortality reaches 50%.
